Results taken from ChEMBL document CHEMBL1201862, “PubChem BioAssay data set” (2004).
Active and inactive are the calls of the source.

What was measured:
[1] = viability loss in Vero cells – cytotoxicity control for Vif-APOBEC3G degradation inhibitor project, dose response (AID 1117358); assay type: functional; settings: Vero
[2] = biological target: T1, Calpain-2 catalytic subunit (Sus scrofa, UniProt P43367); test: m-calpain protease blockers, concentration series – biochemical, fluorogenic peptide substrate, dose response (AID 1420); assay type: functional
T1 sequence (P43367 whole entry): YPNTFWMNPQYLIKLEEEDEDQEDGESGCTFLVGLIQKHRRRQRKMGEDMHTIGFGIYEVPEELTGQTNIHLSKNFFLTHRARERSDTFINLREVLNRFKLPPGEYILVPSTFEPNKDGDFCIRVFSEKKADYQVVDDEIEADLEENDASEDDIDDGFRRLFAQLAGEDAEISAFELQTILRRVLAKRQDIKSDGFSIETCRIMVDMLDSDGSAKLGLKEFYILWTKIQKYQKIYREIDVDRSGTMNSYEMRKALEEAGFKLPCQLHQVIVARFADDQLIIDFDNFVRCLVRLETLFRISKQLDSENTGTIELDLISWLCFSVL

[3] = biological target: T2, Histone-lysine N-methyltransferase NSD2 (Homo sapiens, UniProt O96028); assay type: biochemical
T2 sequence (O96028 whole entry): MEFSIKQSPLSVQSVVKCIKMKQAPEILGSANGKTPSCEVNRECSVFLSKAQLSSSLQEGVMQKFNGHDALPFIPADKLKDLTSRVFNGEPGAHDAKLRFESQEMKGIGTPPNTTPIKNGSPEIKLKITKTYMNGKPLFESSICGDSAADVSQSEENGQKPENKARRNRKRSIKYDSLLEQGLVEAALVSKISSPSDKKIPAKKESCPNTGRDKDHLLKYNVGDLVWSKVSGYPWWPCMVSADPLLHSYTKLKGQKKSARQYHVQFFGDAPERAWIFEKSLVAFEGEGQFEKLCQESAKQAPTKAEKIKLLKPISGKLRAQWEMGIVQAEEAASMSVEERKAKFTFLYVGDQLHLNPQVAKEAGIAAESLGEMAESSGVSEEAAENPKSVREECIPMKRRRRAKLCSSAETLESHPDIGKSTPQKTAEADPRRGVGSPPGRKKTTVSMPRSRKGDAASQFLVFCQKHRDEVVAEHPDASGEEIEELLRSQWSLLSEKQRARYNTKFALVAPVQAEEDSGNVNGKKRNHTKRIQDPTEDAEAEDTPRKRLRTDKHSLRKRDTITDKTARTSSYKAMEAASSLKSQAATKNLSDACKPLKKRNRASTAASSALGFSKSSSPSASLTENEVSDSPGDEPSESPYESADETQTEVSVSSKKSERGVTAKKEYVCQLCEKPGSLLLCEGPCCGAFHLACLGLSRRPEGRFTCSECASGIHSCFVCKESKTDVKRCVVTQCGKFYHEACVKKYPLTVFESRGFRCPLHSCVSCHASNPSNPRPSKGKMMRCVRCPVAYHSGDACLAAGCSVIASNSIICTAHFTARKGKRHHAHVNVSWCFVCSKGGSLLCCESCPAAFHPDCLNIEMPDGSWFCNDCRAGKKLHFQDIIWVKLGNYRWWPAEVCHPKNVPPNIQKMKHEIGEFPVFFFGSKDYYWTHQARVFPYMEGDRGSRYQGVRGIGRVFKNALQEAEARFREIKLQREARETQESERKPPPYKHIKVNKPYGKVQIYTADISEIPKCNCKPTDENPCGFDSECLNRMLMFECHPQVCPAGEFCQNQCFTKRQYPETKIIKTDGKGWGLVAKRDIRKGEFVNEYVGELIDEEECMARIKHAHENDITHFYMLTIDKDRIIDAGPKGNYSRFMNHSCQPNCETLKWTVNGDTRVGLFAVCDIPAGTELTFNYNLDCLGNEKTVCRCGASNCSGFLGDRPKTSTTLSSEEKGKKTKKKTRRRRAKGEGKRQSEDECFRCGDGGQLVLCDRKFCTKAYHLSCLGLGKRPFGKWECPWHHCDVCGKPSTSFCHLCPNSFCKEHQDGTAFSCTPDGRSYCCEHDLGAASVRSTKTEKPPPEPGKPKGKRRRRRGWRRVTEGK

[4] = fluconazole-exposed Candida albicans growth modulators – fluorescence, retest, confirmation (AID 2467); assay type: functional, cell-based
[5] = biological target: E3 ubiquitin-protein ligase UHRF1 (Homo sapiens, UniProt Q96T88); test: Counterscreen for inhibitors of 5-meCpG-binding domain protein 2 (MBD2): TRFRET-based biochemical high throughput dose response assay to identify inhibitors of binding of ubiquitin-like with PHD and ring finger domains 1 (UHRF1) to methylated oligonucleotide.
Caspase-6 = biological target: T3, Caspase-6 (Homo sapiens, UniProt P55212); test: inhibition of CASP6 peptide cleavage – biochemical, VEID-R110 fluorescence, cherry-pick, dose response (AID 720632)
T3 sequence (P55212 whole entry): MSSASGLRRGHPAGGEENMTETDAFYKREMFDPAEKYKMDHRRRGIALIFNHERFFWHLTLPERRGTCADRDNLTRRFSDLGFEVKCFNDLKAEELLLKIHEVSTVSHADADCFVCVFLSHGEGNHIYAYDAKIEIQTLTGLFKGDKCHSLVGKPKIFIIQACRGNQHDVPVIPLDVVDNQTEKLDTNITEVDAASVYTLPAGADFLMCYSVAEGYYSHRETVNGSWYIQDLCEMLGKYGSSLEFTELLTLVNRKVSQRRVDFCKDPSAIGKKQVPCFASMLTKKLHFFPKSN

[6] = NIH-3T3 fibroblast cytotoxicity, dose response, cytotoxicity control, cell-based, fluorescence, Alamar Blue, secondary assay (AID 2327); assay type: functional;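 also: NIH-3T3 mouse fibroblasts cultured with fluconazole at 8 µg/mL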
Large T antigen = Large T antigen (Simian virus 40, UniProt P03070); assay type: functional, Betapolyomavirus macacae;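 also: Confirmatory-stage PubChem screen for compounds that inhibit SV40 T antigen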
[7] = biological target: Induced myeloid leukemia cell differentiation protein Mcl-1 (Homo sapiens, UniProt Q07820); assay type: functional
[8] = biological target: T4, Mannose-6-phosphate isomerase (Homo sapiens, UniProt P34949); test: MPI enzyme activity inhibition – biochemical, fluorescence intensity, coupled assay, primary screen (AID 1209)
T4 sequence (P34949 whole entry): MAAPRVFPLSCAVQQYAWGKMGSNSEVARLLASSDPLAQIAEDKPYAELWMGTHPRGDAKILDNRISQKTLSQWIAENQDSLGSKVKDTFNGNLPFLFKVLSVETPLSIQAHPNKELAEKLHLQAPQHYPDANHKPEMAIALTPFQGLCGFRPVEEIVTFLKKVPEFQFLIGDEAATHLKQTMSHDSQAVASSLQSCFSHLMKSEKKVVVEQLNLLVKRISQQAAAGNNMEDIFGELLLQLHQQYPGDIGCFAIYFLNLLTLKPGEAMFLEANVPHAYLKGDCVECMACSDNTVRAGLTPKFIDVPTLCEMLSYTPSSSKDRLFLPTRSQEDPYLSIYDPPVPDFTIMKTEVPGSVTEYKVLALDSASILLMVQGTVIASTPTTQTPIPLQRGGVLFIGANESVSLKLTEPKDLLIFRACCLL

Aminopeptidase N = biological target: T5, Aminopeptidase N (Plasmodium falciparum FcB1/Columbia, UniProt O96935); test: malaria alanyl aminopeptidase activity blockers – biochemical, fluorogenic H-Leu-NHMec substrate, 1536-well (AID 1445); design: species or system Plasmodium falciparum 3D7, 3D7
T5 sequence (O96935 whole entry): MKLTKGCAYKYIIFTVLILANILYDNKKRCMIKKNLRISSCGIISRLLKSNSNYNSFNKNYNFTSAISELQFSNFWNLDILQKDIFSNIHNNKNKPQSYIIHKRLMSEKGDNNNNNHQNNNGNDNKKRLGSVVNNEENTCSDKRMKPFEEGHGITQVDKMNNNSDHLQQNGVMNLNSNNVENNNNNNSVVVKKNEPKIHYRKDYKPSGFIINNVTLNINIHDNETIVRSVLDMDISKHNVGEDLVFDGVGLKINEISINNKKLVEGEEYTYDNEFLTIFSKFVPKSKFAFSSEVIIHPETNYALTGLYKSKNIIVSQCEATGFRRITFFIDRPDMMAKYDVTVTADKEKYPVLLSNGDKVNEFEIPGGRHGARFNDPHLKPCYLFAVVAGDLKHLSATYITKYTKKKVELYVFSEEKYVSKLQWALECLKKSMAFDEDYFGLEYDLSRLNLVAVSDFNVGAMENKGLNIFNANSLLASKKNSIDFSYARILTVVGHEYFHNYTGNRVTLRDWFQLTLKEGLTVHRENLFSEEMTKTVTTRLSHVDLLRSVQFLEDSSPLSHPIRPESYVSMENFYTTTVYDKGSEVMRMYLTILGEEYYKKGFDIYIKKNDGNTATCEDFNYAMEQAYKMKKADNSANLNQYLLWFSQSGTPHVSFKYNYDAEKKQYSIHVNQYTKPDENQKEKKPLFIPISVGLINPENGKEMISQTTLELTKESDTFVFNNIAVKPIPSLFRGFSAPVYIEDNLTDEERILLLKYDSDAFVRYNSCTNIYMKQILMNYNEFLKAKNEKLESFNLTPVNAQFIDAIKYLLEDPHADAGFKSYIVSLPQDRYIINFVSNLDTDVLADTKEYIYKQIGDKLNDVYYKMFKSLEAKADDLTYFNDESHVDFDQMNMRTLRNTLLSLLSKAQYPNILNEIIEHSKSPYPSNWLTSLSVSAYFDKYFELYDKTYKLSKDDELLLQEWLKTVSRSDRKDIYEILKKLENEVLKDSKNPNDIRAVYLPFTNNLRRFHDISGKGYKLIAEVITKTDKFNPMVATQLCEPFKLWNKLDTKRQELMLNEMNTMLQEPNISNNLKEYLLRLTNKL

Albumin = Albumin (Bos taurus, UniProt P02769); test: Counterscreen for inhibitors of T-cell receptor (TCR)-CD3 interaction: Fluorescence-based biochemical high throughput dose response assay to identify inhibitors of T-cell receptor (TCR)-CD3 interaction using a TAMRA-labeled BSA probe.; assay type: functional
[9] = lung carcinoma cell viability loss – CellTiter-Glo luminescence, dry powder, set 17, dose response (AID 1117284); assay type: functional, cell-based; settings: A549
[10] = OVCAR8 cell viability loss – plate reader, dry powder samples, PAX8 project, dose response (AID 743197); assay type: functional, cell-based; settings: OVCAR-8
[11] = OVCAR-3 cell viability loss – plate reader, dry powder samples, PAX8 inhibitor project, dose response (AID 743044); assay type: functional, cell-based
[12] = viability loss in A549 lung cells – cell-based, 24 h, CellTiter-Glo luminescence, cherry-picks, cytotoxicity control, dose response (AID 1053115); assay type: functional; settings: A549, 24 h
Paired box protein Pax-8 = Paired box protein Pax-8 (Homo sapiens, UniProt Q06710); test: PAX8 transcriptional activity inhibition in RMG-I – RMG-I cells, luciferase, cherry-pick, dose response (AID 687027); assay type: functional, cell-based;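 also: luciferase reporter driven by Pax8 target thyroperoxidase promoter measured by SteadyGlo luminescence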
[13] = general mammalian cell viability loss – activator set, cherry-pick, cytotoxicity control for miR-122 modulator project, dose response (AID 720690); assay type: functional, cell-based;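 also: HEK293T human cells scored for general mammalian cytotoxicity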

Sequence of Albumin (P02769 whole entry): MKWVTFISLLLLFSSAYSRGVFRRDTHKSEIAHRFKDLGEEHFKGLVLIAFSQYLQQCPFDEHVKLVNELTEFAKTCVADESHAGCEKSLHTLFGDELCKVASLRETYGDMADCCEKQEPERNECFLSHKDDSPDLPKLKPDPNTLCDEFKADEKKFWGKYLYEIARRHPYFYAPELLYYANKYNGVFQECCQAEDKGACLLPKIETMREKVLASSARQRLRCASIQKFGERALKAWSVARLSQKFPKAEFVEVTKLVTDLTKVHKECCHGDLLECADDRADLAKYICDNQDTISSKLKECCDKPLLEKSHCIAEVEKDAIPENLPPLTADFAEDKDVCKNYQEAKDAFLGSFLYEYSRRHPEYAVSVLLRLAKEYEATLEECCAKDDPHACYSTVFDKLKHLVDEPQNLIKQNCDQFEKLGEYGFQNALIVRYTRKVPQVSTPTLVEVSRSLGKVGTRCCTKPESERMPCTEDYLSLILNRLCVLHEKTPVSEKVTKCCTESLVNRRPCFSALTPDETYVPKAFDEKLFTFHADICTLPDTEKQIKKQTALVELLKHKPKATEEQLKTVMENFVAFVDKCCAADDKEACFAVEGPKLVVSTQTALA
Sequence of Large T antigen (P03070 whole entry): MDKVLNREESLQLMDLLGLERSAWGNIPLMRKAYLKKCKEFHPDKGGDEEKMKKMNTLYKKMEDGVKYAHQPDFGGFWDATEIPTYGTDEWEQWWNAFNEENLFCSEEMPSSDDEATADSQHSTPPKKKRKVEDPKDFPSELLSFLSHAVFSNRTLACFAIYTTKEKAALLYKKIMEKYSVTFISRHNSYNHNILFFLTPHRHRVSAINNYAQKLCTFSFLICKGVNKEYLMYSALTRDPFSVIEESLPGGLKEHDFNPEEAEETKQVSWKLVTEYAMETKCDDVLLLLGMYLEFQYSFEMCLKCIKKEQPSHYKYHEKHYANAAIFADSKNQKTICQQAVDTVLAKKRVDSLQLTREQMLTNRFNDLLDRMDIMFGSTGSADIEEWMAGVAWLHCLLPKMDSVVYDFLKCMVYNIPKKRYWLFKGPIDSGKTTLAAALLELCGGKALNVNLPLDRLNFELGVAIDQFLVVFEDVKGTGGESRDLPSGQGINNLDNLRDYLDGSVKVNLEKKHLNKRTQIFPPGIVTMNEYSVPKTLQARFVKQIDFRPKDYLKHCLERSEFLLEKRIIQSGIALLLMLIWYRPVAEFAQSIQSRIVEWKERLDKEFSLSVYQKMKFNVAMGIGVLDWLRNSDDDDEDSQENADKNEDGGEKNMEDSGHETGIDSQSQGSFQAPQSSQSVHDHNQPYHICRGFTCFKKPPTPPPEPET
Sequence of Induced myeloid leukemia cell differentiation protein Mcl-1 (Q07820 whole entry): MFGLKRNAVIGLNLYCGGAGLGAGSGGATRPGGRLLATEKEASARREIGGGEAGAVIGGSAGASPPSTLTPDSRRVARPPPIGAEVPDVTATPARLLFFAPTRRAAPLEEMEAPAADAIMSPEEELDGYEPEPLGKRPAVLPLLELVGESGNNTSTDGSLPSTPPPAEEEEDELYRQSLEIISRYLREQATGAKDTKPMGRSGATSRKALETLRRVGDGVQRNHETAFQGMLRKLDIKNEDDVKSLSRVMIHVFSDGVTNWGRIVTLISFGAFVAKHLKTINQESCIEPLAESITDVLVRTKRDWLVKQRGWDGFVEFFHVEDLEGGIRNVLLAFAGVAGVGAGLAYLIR
Sequence of E3 ubiquitin-protein ligase UHRF1 (Q96T88 whole entry, the tested form may be a part): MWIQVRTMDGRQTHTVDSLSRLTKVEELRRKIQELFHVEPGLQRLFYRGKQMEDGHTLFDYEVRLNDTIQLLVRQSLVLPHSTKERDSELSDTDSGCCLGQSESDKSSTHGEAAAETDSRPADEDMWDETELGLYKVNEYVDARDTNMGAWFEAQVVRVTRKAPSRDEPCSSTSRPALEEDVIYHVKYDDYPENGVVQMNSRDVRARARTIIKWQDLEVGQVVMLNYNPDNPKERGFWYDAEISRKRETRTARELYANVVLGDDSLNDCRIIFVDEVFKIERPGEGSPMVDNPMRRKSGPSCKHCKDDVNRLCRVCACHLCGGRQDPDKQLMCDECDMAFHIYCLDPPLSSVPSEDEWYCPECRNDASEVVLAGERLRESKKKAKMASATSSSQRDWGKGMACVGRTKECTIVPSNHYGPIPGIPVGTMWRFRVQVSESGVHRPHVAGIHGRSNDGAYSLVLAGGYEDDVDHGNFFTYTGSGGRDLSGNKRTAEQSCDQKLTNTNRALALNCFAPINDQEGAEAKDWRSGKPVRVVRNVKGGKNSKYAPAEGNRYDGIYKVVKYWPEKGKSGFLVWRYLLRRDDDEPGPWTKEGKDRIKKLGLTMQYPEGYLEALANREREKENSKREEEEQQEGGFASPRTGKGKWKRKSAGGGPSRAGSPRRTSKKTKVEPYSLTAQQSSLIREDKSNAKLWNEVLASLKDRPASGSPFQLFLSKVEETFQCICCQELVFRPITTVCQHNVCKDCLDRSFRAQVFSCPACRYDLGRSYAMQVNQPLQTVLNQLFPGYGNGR
Sequence of Paired box protein Pax-8 (Q06710 whole entry): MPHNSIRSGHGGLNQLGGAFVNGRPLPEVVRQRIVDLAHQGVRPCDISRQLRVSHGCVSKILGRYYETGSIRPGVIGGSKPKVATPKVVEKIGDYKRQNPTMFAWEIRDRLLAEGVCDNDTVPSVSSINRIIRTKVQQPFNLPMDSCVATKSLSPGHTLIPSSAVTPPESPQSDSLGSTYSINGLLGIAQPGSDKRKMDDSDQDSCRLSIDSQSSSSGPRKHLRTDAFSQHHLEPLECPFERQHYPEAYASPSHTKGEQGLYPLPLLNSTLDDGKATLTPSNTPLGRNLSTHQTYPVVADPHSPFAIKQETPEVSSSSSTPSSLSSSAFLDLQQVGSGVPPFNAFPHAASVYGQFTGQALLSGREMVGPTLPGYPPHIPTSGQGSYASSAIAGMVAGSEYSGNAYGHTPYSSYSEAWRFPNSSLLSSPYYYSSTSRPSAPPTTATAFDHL

With `Cc1ccc(Cl)cc1N1CCN(C(=O)Cc2cn(C)c3ccccc23)CC1` the CC50 [1] was > 40 µM (active) and the IC50 [2] was 6.39 µM (not active).
With `COc1ccc(/C=N/NC(=O)c2cc(O)c(O)c(O)c2)cc1Cn1cc([N+](=O)[O-])cn1` the AC50 [3] was 5.22 µM (active), the EC50 [4] was 3.25 µM (active) and the IC50 [5] was > 43.8 µM (inactive). The AC50 (Caspase-6) was 0.873 µM (active), the EC50 [6] was 30 µM (active) and the IC50 (Large T antigen) was 0.99 µM (active). For the same compound, the IC50 [7] was 4.31 µM (active), the IC50 [8] was 12 µM (active) and the IC50 (Aminopeptidase N) was 92.6 µM (active). For the same compound, the IC50 (Albumin) was > 94.1 µM (inactive).
With `C[C@@H](O)C#Cc1ccc2c(c1)O[C@H](CN(C)Cc1ccc(-c3ccccc3)cc1)[C@@H](C)CN([C@@H](C)CO)S2(=O)=O` the AC50 [9] was 28.6 µM (active), the AC50 [10] was > 70 µM (inactive) and the AC50 [11] was 50.2 µM (active). The AC50 [12] was 51.8 µM (active), the AC50 (Paired box protein Pax-8) was 4.84 µM (active) and the AC50 [13] was 19.4 µM (active).
